In patent US8940310B2, “Methods of treatment using TLR7 and/or TLR9 inhibitors” (Dynavax Technologies Corporation, priority 2010, dated 2015):
Marks after values point to notes of the source that are not given here.

Key:
[1] = High dosages of IRPs in mice (weight, histology); assay type: in vivo, BALB/c mice; details: for Liver: Liver changes, number of animals / Liver: Mixed cell infiltration, number of animals / Liver: No significan changes, number of animals / Right Kidney: No significant changes, number of animals / Right Kidney: Tubular basophilia, number of animals / Right Kidney: Tubular changes, number of animals: 6 animals; for Heart: No significant changes, number of animals: tissue missing in two animals
How it was run: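 BALB/c mice (n=5 per group) received IRPs or saline subcutaneously at 4, 20, 50 or 100 mg/kg on days 1, 4, 7 and 10. Body weight tracked over the study; at termination organ weights, tissue oligonucleotide levels and liver, kidney and heart histology were assessed.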

[2] = Monomer and tetramer formation of IRPs, size-exclusion HPLC; assay type: physicochemical; details: 100 mg/mL in PBS and 0.5M KCl, room temperature, three weeks
Description: Solutions were prepared of the by mixing 100 mg/mL of the IRP sequences in PBS and 0.5M KCl and storing at room temperature for three to five weeks. The solutions were subsequently analyzed by size-exclusion HPLC.

[3] = tested on: human B-cells; assay: Human B-cells cultured in the presence of IRPs, IL-6
Description: For the human B-cell assay, B-cells were purified from total blood cells obtained from healthy donors using magnetic beads (CD19 positive). Cells were resuspended in fresh medium (RPMI 1640 with 10% fetal calf serum, 50 units/mL penicillin, 50 μg/mL streptomycin, and 2 mM glutamine). At 48 hours, supernatants were collected and cytokine levels, IL-6, were measured using immunoassay.
To further investigate the effect of IRPs on B-cell stimulatory activity, a wide variety of IRP sequences were assayed for IL-6, along with positive and negative controls. The experiment was performed as described in Example 1 using doses of IRP of either 4.0 μM or 2.0 μM. The positive control was an immunostimulatory sequence (ISS) with SEQ ID NO:157. […] The results are presented as the average normalized IL-6 response over several experiments.

[4] = High dosages of IRPs in rats (weight, deaths, histology); assay type: in vivo, Sprague Dawley rats; details: rat; for Heart: Cell Vacuolation, number of animals / Heart: Hemorrhage, number of animals / Heart: Mononuclear Cell Infiltration, number of animals / Heart: Necrosis, number of animals / Heart: No significant changes, number of animals / Liver: Liver changes, number of animals / Liver: Mixed cell infiltration, number of animals / Liver: Necrosis, number of animals / Liver: No significant changes, number of animals / Liver: Vacuolation, number of animals / Right Kidney: Hydronephrosis, number of animals / Right Kidney: Mineralization, number of animals / Right Kidney: Necrosis, number of animals / Right Kidney: No significant changes, number of animals / Right Kidney: Tubular basophilia, number of animals / Right Kidney: Tubular changes, number of animals: 6 animals
[5] = 50 mg/kg, 0 = no change to 4 = severe
[6] = 100 mg/kg, 0 = no change to 4 = severe
[7] = 10 mg/kg, 0 = no change to 4 = severe
[8] = 90 mg/kg, 0 = no change to 4 = severe

## 5′-TGCTCCTGGAGGGGTTGT-3′ (DNA, backbone not given here) [SEQ ID NO:42]
[1]; 50 mg/kg
  Heart: Chronic inflammation, number of animals: 1
  Heart: Mineralization, number of animals: 1
  Liver: Liver changes, number of animals: 5
  Liver: Mixed cell infiltration, number of animals: 4
  Liver: No significan changes, number of animals: 0
  Right Kidney: No significant changes, number of animals: 1
  Right Kidney: Tubular basophilia, number of animals: 0
  Right Kidney: Tubular changes, number of animals: 5
  Heart: No significant changes, number of animals: 2**
[1]; [5]
  Heart: Chronic inflammation, mean severity score: 2.0
  Heart: Mineralization, mean severity score: 3.0
  Liver: Liver changes, mean severity score: 1.0
  Liver: Mixed cell infiltration, mean severity score: 1.8
  Right Kidney: Tubular changes, mean severity score: 1.0
[1]; 100 mg/kg
  Heart: Chronic inflammation, number of animals: 0
  Heart: Mineralization, number of animals: 1
  Liver: Liver changes, number of animals: 6
  Liver: Mixed cell infiltration, number of animals: 4
  Liver: No significan changes, number of animals: 0
  Right Kidney: No significant changes, number of animals: 0
  Right Kidney: Tubular basophilia, number of animals: 0
  Right Kidney: Tubular changes, number of animals: 6
  Heart: No significant changes, number of animals: 3**
[1]; 100 mg/kg SC days 1, 4, 7, 10
  weight loss as % gain versus pre-dose: but not SEQ ID NO:42 provoked weight loss
[1]; [6]
  Heart: Mineralization, mean severity score: 2.0
  Liver: Liver changes, mean severity score: 1.8
  Liver: Mixed cell infiltration, mean severity score: 2.0
  Right Kidney: Tubular changes, mean severity score: 1.0
[2]
  fraction in monomer form: 54.01%
  fraction in tetramer form: 45.99%
[3]; Experiment # 1, Max Conc 4.0 uM
  Normalized IL-6 Response (Percentage of Positive Control): 13%
[3]; Experiment # 2, Max Conc 4.0 uM
  Normalized IL-6 Response (Percentage of Positive Control): 14%
[3]; Experiment # 3, Max Conc 4.0 uM
  Normalized IL-6 Response (Percentage of Positive Control): 5%
[3]; Experiment # 4, Max Conc 4.0 uM
  Normalized IL-6 Response (Percentage of Positive Control): 9%
[3]; Experiment # 5, Max Conc 4.0 uM
  Normalized IL-6 Response (Percentage of Positive Control): 10%
[3]; Experiment # 6, Max Conc 4.0 uM
  Normalized IL-6 Response (Percentage of Positive Control): 6%
[3]; Experiment # 7, Max Conc 4.0 uM
  Normalized IL-6 Response (Percentage of Positive Control): 9%
[3]; Experiment # 8, Max Conc 2.0 uM
  Normalized IL-6 Response (Percentage of Positive Control): 8%
[3]; Experiment # 9, Max Conc 2.0 uM
  Normalized IL-6 Response (Percentage of Positive Control): 6%
[3]; Experiment # 10, Max Conc 2.0 uM
  Normalized IL-6 Response (Percentage of Positive Control): 18%
[3]; Experiment # 11, Max Conc 2.0 uM
  Normalized IL-6 Response (Percentage of Positive Control): 10%
[3]; human B-cells with IRP alone, 48 hours, FIGS. 1A-B
  B-cell response as evidenced by IL-6 produced: did not induce any B-cell response
[4]; 10 mg/kg or 100 mg/kg SC days 0, 3, 6, 9
  organ weight of the liver, heart, kidney, or spleen: no significant difference
[4]; 10 mg/kg
  Heart: Cell Vacuolation, number of animals: 0
  Heart: Hemorrhage, number of animals: 0
  Heart: Mononuclear Cell Infiltration, number of animals: 1
  Heart: Necrosis, number of animals: 0
  Heart: No significant changes, number of animals: 5
  Liver: Liver changes, number of animals: 1
  Liver: Mixed cell infiltration, number of animals: 2
  Liver: Necrosis, number of animals: 0
  Liver: No significant changes, number of animals: 3
  Liver: Vacuolation, number of animals: 0
  Right Kidney: Hydronephrosis, number of animals: 0
  Right Kidney: Mineralization, number of animals: 3
  Right Kidney: Necrosis, number of animals: 0
  Right Kidney: No significant changes, number of animals: 0
  Right Kidney: Tubular basophilia, number of animals: 0
  Right Kidney: Tubular changes, number of animals: 6
[4]; [7]
  Heart: Mononuclear Cell Infiltration, mean severity score: 2.0
  Liver: Liver changes, mean severity score: 1.0
  Liver: Mixed cell infiltration, mean severity score: 1.5
  Right Kidney: Mineralization, mean severity score: 2.0
  Right Kidney: Tubular changes, mean severity score: 1.0
[4]; 90 mg/kg
  Kidney: tubular basophilia: occurred
  Liver: hepatocellular necrosis: hepatocellular necrosis
  Heart: Cell Vacuolation, number of animals: 0
  Heart: Hemorrhage, number of animals: 0
  Heart: Mononuclear Cell Infiltration, number of animals: 0
  Heart: Necrosis, number of animals: 0
  Heart: No significant changes, number of animals: 6
  Liver: Liver changes, number of animals: 6
  Liver: Mixed cell infiltration, number of animals: 4
  Liver: Necrosis, number of animals: 1
  Liver: No significant changes, number of animals: 0
  Liver: Vacuolation, number of animals: 0
  Right Kidney: Hydronephrosis, number of animals: 0
  Right Kidney: Mineralization, number of animals: 1
  Right Kidney: Necrosis, number of animals: 0
  Right Kidney: No significant changes, number of animals: 0
  Right Kidney: Tubular basophilia, number of animals: 4
  Right Kidney: Tubular changes, number of animals: 6
[4]; [8]
  Liver: Liver changes, mean severity score: 2.3
  Liver: Mixed cell infiltration, mean severity score: 2.1
  Liver: Necrosis, mean severity score: 3.5
  Right Kidney: Mineralization, mean severity score: 1.0
  Right Kidney: Tubular basophilia, mean severity score: 1.5
  Right Kidney: Tubular changes, mean severity score: 2.0
